“Also recorded” adds a separate entry of the source.
How the values were obtained:
Humanthrombozyten [1] = assay: Cyclo AMP determination in human platelets (Method 3, 3H-adenine labelling); assay type: cell-based; details: result in words
Description: Methode 3 - Cyclo AMP-Bestimmung in Humanthrombozyten
Die Methode folgt in allen Einzelheiten der Vorschrift in Nature (London) 292 (1981) 364: Statt Kaninchenthrombozyten wurde jedoch menschliches Thrombozytenkonzentrat mit ³H-Adenin bei 20°C für 90 min inkubiert. Das überschüssige Adenin wird, wie in Nature beschrieben, entfernt, die Wirkstoffe (s. Tab. 2) zugesetzt und erneut 5 min (37°C) inkubiert. Das gebildete ³H-cyclo AMP wird in der bekannten Weise abgetrennt und durch Radioaktivitätsmessung quantifiziert.

Humanthrombozyten [2] = assay: Induced aggregation of human platelets in vitro (Method 1, platelet-rich plasma, Born aggregometer); assay type: cell-based; details: result in words; Tilsuprost compared with Prostacyclin
Source text: Methode 1 - Induzierte Aggregation von Humanthrombozyten in vitro
Gesund erscheinenden männlichen und weiblichen Freiwilligen, die im vorangegangenen Zeitraum von 10 Tagen keine Medikamente eingenommen haben, wird durch vorsichtige Kanülierung der Antekubitalvene Blut entnommen, das sofort mit Natriumzitrat (ad 0,38%) stabilisiert wird. Durch 15minütiges Zentrifugieren bei 140 x g erhält man im Überstand plättchenreiches Plasma (PRP), dessen Thrombozytengehalt im Bereich 2,5 - 3,5·10⁺⁸ /ml (Coulter Counter) liegen soll. Die Plättchenaggregation wird optisch durch Messung der Lichttransmission im Born'schen Aggregometer verfolgt. Das Gesamtvolumen des Testansatzes beträgt 0,25 ml. Die Vorinkubationszeit mit dem Prüfpräparat beträgt 10 min bei 37°C, die Aggregationsinduktion erfolgt sodann mit 2 · 10⁻⁴ mol/l Arachidonsäure oder 1,7 µg/ml Kollagen. Das Prüfpräparat wird an fünf verschiedenen Spendern getestet. Aus den jeweiligen maximalen Aggregationsamplituden werden Dosis-Wirkungskurven erstellt und graphisch die arithmetisch gemittelten ED₅₀ (mol/l)-Werte bestimmt. Die Messungen erfolgen im Zeitraum von 1-6 Stunden nach Blutentnahme.

Compound | cyclo AMP-Stimulierung in Humanthrombozyten (Humanthrombozyten [1]) | Hemmstoffe der Aggregation von Humanthrombozyten (Humanthrombozyten [2])
CCCCCC(O)C=CC1C(O)CC2N=C(SCCCCC(=O)O)CC21 (stereo not drawn) [Tilsuprost] | keine signifikante Stimulierung; also recorded: keine signifikante stimulierende Wirkung | äquipotent
CCCCC[C@H](O)/C=C/[C@@H]1[C@H]2C/C(=C/CCCC(=O)O)O[C@H]2C[C@H]1O [Prostacyclin, reference compound] | – | äquipotent

Reference: patent publication EP0208962B1, “Combination preparations from thrombocyte aggregation inhibitors, and their use” (HOECHST AKTIENGESELLSCHAFT, priority 1985, dated 1987)
